Measured values as given in patent publication US7410774B1, “Compounds modulating sister chromatid separation and method for identifying same” (Boehringer Ingelheim International GmbH, priority 1999, dated 2008).

Key:
HeLa cells [1] = assay: Association of human SCC1 with chromatin (quantitative immunoblotting of chromatin and supernatant fractions); type: cell-based; conditions: HeLa cells arrested in metaphase by nocodazole (56% in logarithmically growing cells)
Procedure: In some experiments logarithmically growing HeLa cells were treated with 330 nM nocodazole dissolved in 0.1% DMSO for 18 hours, or cells synchronized by double-thymidine treatment were released into nocodazole-containing medium for different periods of time. In control experiments 0.1% DMSO was added without nocodazole. Chromatin and supernatant fractions were prepared from HeLa cells that were either growing logarithmically (log) or were arrested in metaphase with nocodazole (noc). Proteins from equivalent aliquots of these fractions were separated by SDS-PAGE and analyzed for the presence of SCC1 by immunoblotting using radiolabeled antibodies (FIG. 8, top panel), The intensities of the SCC1 bands were quantitated (FIG. 8, bottom panel).

HeLa cells [2] = assay: SCC1 cleavage and securin degradation in synchronized HeLa cells released into the cell cycle in the presence of nocodazole; type: cell-based, human; conditions: double-thymidine synchronized, immunoblot
Procedure: For cell cycle synchronization, a double-thymidine treatment was used. HeLa cells were first treated with 2 mM thymidine for 18 h. Subsequently, cells were washed with PBS, fresh medium was added and the cells were grown for another 8 h. Then the cells were treated again with 2 mM thymidine for 18 h, subsequently washed and incubated in fresh medium. Samples were taken at different time points. Samples were splitted and used for FACscan analysis and for immunoblotting. Cell extracts were made with glass-teflon potters in ice cold buffer containing 50 mM Tris pH 7.7, 100 mM NaCl, 20 mM b-glycerophosphate, 5 mM MgCl2, 1 mM NaF, 0.1-0.2% Triton X-100, 10% Glycerol, 1 mM DTT and protease inhibitors).
In some experiments logarithmically growing HeLa cells were treated with 330 nM nocodazole dissolved in 0.1% DMSO for 18 hours, or cells synchronized by double-thymidine treatment were released into nocodazole-containing medium for different periods of time. […]
HeLa cells stably expressing SCC1-myc were synchronized by double-thymidine treatment and were released into the cell cycle in the presence of either DMSO (results shown in FIGS. 11A and C) or nocodazole dissolved in DMSO (results shown in FIGS. 11B and D). […] Cells were analyzed by FACsan (FIGS. 11A and B) and by immunoblotting of whole cell extracts using the indicated antibodies (FIGS. 11C and D). […]

COC(=O)Nc1nc2ccc(C(=O)c3cccs3)cc2[nH]1 [nocodazole]
amount of the total cellular SCC1 associated with chromatin (HeLa cells [1]): 13% | cleavage of SCC1 (HeLa cells [2]): no cleavage of SCC1 could be observed | securin degradation (HeLa cells [2]): not degraded
